Test results taken from patent US12336981B2, “Compounds and compositions for the inhibition of NAMPT” (Valo Health, Inc., priority 2010, dated 2025).
Where two headings read alike, the source gives them in different places.

Legend:
NAMPT = biological target: T1, NAMPT (Homo sapiens, UniProt P43490); assay: Biochemical inhibition assay: NAMPT enzymatic reaction, NMN quantified by mass spectrometry; conditions: read-out: Biochem IC50
T1 construct: His tag; host or cells: E. coli
How it was run: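 Inhibition of E. coli-expressed His-tagged human NAMPT, measured as NMN formation by mass spectrometry after a 30 min room-temperature reaction containing 1 μM NAM, 100 μM PRPP and 2.5 mM ATP.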

A2780 cells = assay: In-vitro cell proliferation assay (SRB), A2780 cells; assay type: cell-based; conditions: Homo sapiens, A2780, 72 h, A2780 cells, 72 hours, read-out: A2780 IC50
How it was run: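 Growth inhibition was derived from background-corrected SRB absorbance (570 nm), measured on cells fixed in 6% TCA after three days of compound treatment under 5% CO2 at 37° C.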

T1 sequence (P43490 whole entry): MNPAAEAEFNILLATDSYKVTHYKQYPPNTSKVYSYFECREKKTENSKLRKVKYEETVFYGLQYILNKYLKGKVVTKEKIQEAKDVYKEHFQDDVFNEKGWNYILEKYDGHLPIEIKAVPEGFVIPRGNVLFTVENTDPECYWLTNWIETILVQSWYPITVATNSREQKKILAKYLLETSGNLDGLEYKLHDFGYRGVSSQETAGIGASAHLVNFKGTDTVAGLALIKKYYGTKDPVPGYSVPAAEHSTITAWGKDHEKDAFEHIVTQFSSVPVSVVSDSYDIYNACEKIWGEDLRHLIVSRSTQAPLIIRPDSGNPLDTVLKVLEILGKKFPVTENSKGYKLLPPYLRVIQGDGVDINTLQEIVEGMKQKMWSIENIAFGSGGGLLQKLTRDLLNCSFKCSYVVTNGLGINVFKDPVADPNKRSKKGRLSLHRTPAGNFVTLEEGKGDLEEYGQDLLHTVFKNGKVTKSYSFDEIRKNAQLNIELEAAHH

Row | SMILES | IC50 (NAMPT; NAMPT enzymatic assay) [nM] | IC50 (A2780 cells; SRB) [nM] | IC50 (NAMPT; NAMPT enzymatic reaction) [nM] | IC50 (A2780 cells; SRB assay) [nM]
1 | CN(C)c1cnc(S(=O)(=O)c2ccc(CNC(=O)c3ccc4nccn4c3)cc2)cn1 [N-({4-[5-(dimethylamino)pyrazine-2-sulfonyl]phenyl}methyl)imidazo[1,2-a]pyridine-6-carboxamide] | 16 | 3.6 | – | –
2 | CCCCOc1ccc(S(=O)(=O)c2ccc(CNC(=O)c3ccc4nccn4c3)cc2)c(C)c1 | – | 22.4 | 10 | –
3 | COc1ccc(Cl)cc1S(=O)(=O)c1ccc(CNC(=O)c2cnc3nccn3c2)cc1 | – | 6.1 | 5.5 | –
4 | COc1cccc(S(=O)(=O)c2ccc(CNC(=O)c3cnc4nccn4c3)cc2)c1OC | – | 77.6 | 17.6 | –
5 | O=C(NCc1ccc(S(=O)(=O)c2cccc(N3CCCC3)c2)cc1)c1cc2ccncc2o1 | 8.2 | 7.4 | – | –
6 | O=C(NCc1ccc(S(=O)(=O)c2ccc(Cl)c(C(F)(F)F)c2)cc1)c1ccc2nccn2c1 [N-[(4-{[4-chloro-3-(trifluoromethyl)benzene]sulfonyl}phenyl)methyl]imidazo[1,2-a]pyridine-6-carboxamide] | 9.84 | 3.57 | – | –
7 | COc1cccc(S(=O)(=O)c2ccc(CNC(=O)c3cnc4[nH]ncc4c3)cc2)c1OC [N-({4-[(2,3-dimethoxybenzene)sulfonyl]phenyl}methyl)-1H-pyrazolo[3,4-b]pyridine-5-carboxamide] | – | 83.3 | 123 | –
8 | O=C(NCc1ccc(S(=O)(=O)c2cccc(F)c2F)cc1)c1cnc2[nH]ncc2c1 | – | 279 | 82 | –
9 | CCCCOc1cc(F)ccc1S(=O)(=O)c1ccc(CNC(=O)c2ccc3nccn3c2)cc1 | – | 6.2 | 51.2 | –
10 | COc1cc(C(F)(F)F)ccc1S(=O)(=O)c1ccc(CNC(=O)c2cc3ccncc3s2)cc1 [N-[(4-{[2-methoxy-4-(trifluoromethyl)benzene]sulfonyl}phenyl)methyl]thieno[2,3-c]pyridine-2-carboxamide] | 10 | 2.2 | 9 | 7.5
11 | COc1ccccc1S(=O)(=O)c1ccc(CNC(=O)c2cnc3nccn3c2)cc1 [N-({4-[(2-methoxybenzene)sulfonyl]phenyl}methyl)imidazo[1,2-a]pyrimidine-6-carboxamide] | – | 74.7 | 3.9 | –
12 | O=C(NCc1ccc(S(=O)(=O)c2ccc(C(F)(F)F)cc2Cl)cc1)c1cnc2[nH]ncc2c1 [N-[(4-{[2-chloro-4-(trifluoromethyl)benzene]sulfonyl}phenyl)methyl]-1H-pyrazolo[3,4-b]pyridine-5-carboxamide] | 114 | 86.9 | – | –
13 | O=C(NCc1ccc(S(=O)(=O)c2cnc3ccc(Cl)cn23)cc1)c1cc2cnccc2[nH]1 [N-[(4-{6-chloroimidazo[1,2-a]pyridine-3-sulfonyl}phenyl)methyl]-1H-pyrrolo[3,2-c]pyridine-2-carboxamide] | 13.2 | 1.4 | – | –
14 | COc1ccc(F)cc1S(=O)(=O)c1ccc(CNC(=O)c2cnc3[nH]ncc3c2)cc1 | – | 15.1 | 39 | –
15 | Cc1cccc(S(=O)(=O)c2ccc(CNC(=O)c3cc4cnccc4[nH]3)cc2)c1F | – | 7 | 75.8 | –
16 | O=C(NCc1ccc(S(=O)(=O)CCCCc2ccccc2)cc1)c1cc2cnccc2[nH]1 [N-({4-[(4-phenylbutane)sulfonyl]phenyl}methyl)-1H-pyrrolo[3,2-c]pyridine-2-carboxamide] | – | 71.5 | 216 | –
17 | Cc1ccc(S(=O)(=O)c2ccc(CNC(=O)c3ccc4nccn4c3)cc2)cc1F [N-({4-[(3-fluoro-4-methylbenzene)sulfonyl]phenyl}methyl)imidazo[1,2-a]pyridine-6-carboxamide] | – | 3.78 | 13.3 | –
18 | Cn1ncc2cccc(S(=O)(=O)c3ccc(CNC(=O)c4cc5cnccc5[nH]4)cc3)c21 [N-{[4-(1-methyl-1H-indazole-7-sulfonyl)phenyl]methyl}-1H-pyrrolo[3,2-c]pyridine-2-carboxamide] | 37.1 | 11.1 | – | –
19 | COc1ccc(OC)c(S(=O)(=O)c2ccc(CNC(=O)c3ccc4nccn4c3)cc2)c1 [N-({4-[(2,5-dimethoxybenzene)sulfonyl]phenyl}methyl)imidazo[1,2-a]pyridine-6-carboxamide] | – | 12.8 | 20.2 | –
20 | Cc1ccc(S(=O)(=O)c2ccc(CNC(=O)c3cc4ccncc4s3)cc2)cc1C [N-({4-[(3,4-dimethylbenzene)sulfonyl]phenyl}methyl)thieno[2,3-c]pyridine-2-carboxamide] | – | – | 6 | 2.3
21 | O=C(NCc1ccc(S(=O)(=O)c2cccc3ccccc23)cc1)c1cc2ccncc2o1 [N-{[4-(naphthalene-1-sulfonyl)phenyl]methyl}furo[2,3-c]pyridine-2-carboxamide] | 4.9 | 3.1 | – | –
22 | CC(C)Oc1cc(F)ccc1S(=O)(=O)c1ccc(CNC(=O)c2cc3ccncc3o2)cc1 | 15.6 | 13.9 | – | –
23 | COc1cccc(S(=O)(=O)c2ccc(CNC(=O)c3cc4ccncc4o3)cc2)c1 | – | 6.9 | 3.5 | –

Row | SMILES | IC50 (NAMPT; NAMPT enzymatic assay) [nM] | IC50 (A2780 cells; SRB) [nM] | IC50 (NAMPT; NAMPT enzymatic reaction) [nM] | IC50 (A2780 cells; SRB assay) [nM]
24 | O=C(NCc1ccc(S(=O)(=O)c2ccccc2)cc1)c1noc(-c2cccnc2)n1 [N-{[4-(benzenesulfonyl)phenyl]methyl}-5-(pyridin-3-yl)-1,2,4-oxadiazole-3-carboxamide] | – | – | 312 | > 30000
25 | O=C(NCc1ccc(S(=O)(=O)c2ccc(CO)cc2)cc1)c1cc2ccncc2s1 [N-[(4-{[4-(hydroxymethyl)benzene]sulfonyl}phenyl)methyl]thieno[2,3-c]pyridine-2-carboxamide] | 3.8 | 6.6 | – | –
26 | O=C(NCc1ccc(S(=O)(=O)c2cccc(C(F)(F)F)c2Cl)cc1)c1cc2ccncc2o1 | 18.4 | 27.9 | – | –
27 | O=C(NCc1ccc(S(=O)(=O)c2cccc3c2sc2ccccc23)cc1)c1cc2ccncc2s1 | 1.4 | 4.3 | – | –
28 | COc1ccc(S(=O)(=O)c2ccc(CNC(=O)c3cc4cnccc4[nH]3)cc2)c(OC)c1 [N-({4-[(2,4-dimethoxybenzene)sulfonyl]phenyl}methyl)-1H-pyrrolo[3,2-c]pyridine-2-carboxamide] | 27 | 7 | – | –
29 | O=C(NCc1ccc(S(=O)(=O)c2cc(F)cc(Cl)c2)cc1)c1cc2ccncc2s1 | – | 0.6 | 1.4 | –
30 | N#Cc1cccc(S(=O)(=O)c2ccc(CNC(=O)c3cnc4nccn4c3)cc2)c1 | – | 19.2 | 5.9 | –
31 | CCCOc1ccc(S(=O)(=O)c2ccc(CNC(=O)c3ccc4nccn4c3)cc2)cc1 | – | 1.9 | 6.1 | –
32 | COc1ccc(C(C)(C)C)cc1S(=O)(=O)c1ccc(CNC(=O)c2cc3ccncc3s2)cc1 [N-({4-[(5-tert-butyl-2-methoxybenzene)sulfonyl]phenyl}methyl)thieno[2,3-c]pyridine-2-carboxamide] | – | – | 15 | 4.6
33 | O=C(NCc1ccc(S(=O)(=O)c2cnc3ccc(Cl)cn23)cc1)c1cnc2nccn2c1 [N-[(4-{6-chloroimidazo[1,2-a]pyridine-3-sulfonyl}phenyl)methyl]imidazo[1,2-a]pyrimidine-6-carboxamide] | 1.6 | 0.4 | – | –
34 | CCCCOc1ccc(S(=O)(=O)c2ccc(CNC(=O)c3cnc4[nH]ncc4c3)cc2)c(C)c1 [N-({4-[(4-butoxy-2-methylbenzene)sulfonyl]phenyl}methyl)-1H-pyrazolo[3,4-b]pyridine-5-carboxamide] | – | 68.8 | 70.9 | –
35 | Cc1ccc(S(=O)(=O)c2ccc(CNC(=O)c3cc4cnccc4[nH]3)cc2)s1 [N-{[4-(5-methylthiophene-2-sulfonyl)phenyl]methyl}-1H-pyrrolo[3,2-c]pyridine-2-carboxamide] | – | – | 7 | 13
36 | Cc1cc(Cl)cc(S(=O)(=O)c2ccc(CNC(=O)c3cc4ccncc4s3)cc2)c1 [N-({4-[(3-chloro-5-methylbenzene)sulfonyl]phenyl}methyl)thieno[2,3-c]pyridine-2-carboxamide] | – | 1.6 | 4.5 | –
37 | O=C(NCc1ccc(S(=O)(=O)c2ccc(C(F)(F)F)cc2F)cc1)c1ccc2nccn2c1 | 15.6 | 15.7 | – | –
38 | O=C(NCc1ccc(S(=O)(=O)c2ccccc2)cc1)c1cc(-c2cccnc2)no1 [N-{[4-(benzenesulfonyl)phenyl]methyl}-3-(pyridin-3-yl)-1,2-oxazole-5-carboxamide] | – | – | 33 | > 30000
39 | O=C(NCc1ccc(S(=O)(=O)c2cccc3c2OCC3)cc1)c1cc2cnccc2[nH]1 [N-{[4-(2,3-dihydro-1-benzofuran-7-sulfonyl)phenyl]methyl}-1H-pyrrolo[3,2-c]pyridine-2-carboxamide] | 14 | 3.8 | – | –
40 | O=C(NCc1ccc(S(=O)(=O)c2ccccc2)cc1)N1CCc2[nH]ncc2C1 [N-{[4-(benzenesulfonyl)phenyl]methyl}-1H,4H,5H,6H,7H-pyrazolo[4,3-c]pyridine-5-carboxamide] | – | – | > 2000 | > 2000
41 | Cn1ncc2cc(S(=O)(=O)c3ccc(CNC(=O)c4cnc5nccn5c4)cc3)ccc21 [N-{[4-(1-methyl-1H-indazole-5-sulfonyl)phenyl]methyl}imidazo[1,2-a]pyrimidine-6-carboxamide] | 1.7 | 4.9 | – | –
42 | CCCCc1ccc(S(=O)(=O)c2ccc(CNC(=O)c3cc4cnccc4[nH]3)cc2)cc1 | – | 35.8 | 14.6 | –
43 | COc1ccc(C)cc1S(=O)(=O)c1ccc(CNC(=O)c2cc3ccncc3s2)cc1 [N-({4-[(2-methoxy-5-methylbenzene)sulfonyl]phenyl}methyl)thieno[2,3-c]pyridine-2-carboxamide] | – | – | 6 | 2.5
44 | COc1c(Cl)cccc1S(=O)(=O)c1ccc(CNC(=O)c2cc3ccncc3o2)cc1 | – | 62.3 | 19.2 | –
45 | CCN(CC)C(=O)c1ccc(F)c(S(=O)(=O)c2ccc(CNC(=O)c3cc4cnccc4[nH]3)cc2)c1 | 38.4 | 26.2 | – | –
